Reference: PubChem BioAssay AID248 (DTP/NCI, 2004)
Values joined by “and” are separate entries in the source; they are usually repeats but may differ in a detail not shown here. Equal entries are not always repeated. Inconclusive results and toxic doses are left out. No stated cut-off is given here; in the data, active means T/C of 150% or more; inactive means T/C below 125%.

Test system: L1210 leukemia ip in BDF1 mice, survival T/C
Test: NCI In Vivo Anticancer Drug Screen. Data for tumor model L1210 Leukemia (intraperitoneal) in B6D2F1 (BDF1) mice
Settings: endpoint: mean survival time, higher = longer survival
How it was run: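 In this screen, tumor-bearing mice given compound are compared to those given vehicle, and their survival values are reported as a treated-to-control quotient.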

[1] = dose: 100.0 mg/kg/injection, schedule: Q01DX001 (ip), vehicle: carboxymethylcellulose (CMC)
[2] = dose: 100.0 mg/kg/injection, schedule: Q01DX001 (ip), vehicle: saline
[3] = dose: 100.0 mg/kg/injection, schedule: Q01DX009 (ip), vehicle: saline
[4] = dose: 200.0 mg/kg/injection, schedule: Q01DX001 (ip), vehicle: carboxymethylcellulose (CMC)
[5] = dose: 200.0 mg/kg/injection, schedule: Q01DX001 (ip), vehicle: saline
[6] = dose: 200.0 mg/kg/injection, schedule: Q01DX009 (ip), vehicle: saline
[7] = dose: 400.0 mg/kg/injection, schedule: Q01DX001 (ip), vehicle: carboxymethylcellulose (CMC)
[8] = dose: 400.0 mg/kg/injection, schedule: Q01DX001 (ip), vehicle: saline
[9] = dose: 400.0 mg/kg/injection, schedule: Q01DX009 (ip), vehicle: saline
[10] = dose: 50.0 mg/kg/injection, schedule: Q01DX001 (ip), vehicle: saline
[11] = dose: 100.0 mg/kg/injection, schedule: Q04DX003 (ip), vehicle: saline
[12] = dose: 100.0 mg/kg/injection, schedule: Q04DX003 (ip), vehicle: saline with Tween-80
[13] = dose: 200.0 mg/kg/injection, schedule: Q04DX003 (ip), vehicle: saline with Tween-80
[14] = dose: 400.0 mg/kg/injection, schedule: Q04DX003 (ip), vehicle: saline with Tween-80
[15] = dose: 100.0 mg/kg/injection, schedule: Q01DX001 (ip), vehicle: Klucel (hydroxypropylcellulose) (HPC)
[16] = dose: 200.0 mg/kg/injection, schedule: Q01DX001 (ip), vehicle: Klucel (hydroxypropylcellulose) (HPC)
[17] = dose: 400.0 mg/kg/injection, schedule: Q01DX001 (ip), vehicle: Klucel (hydroxypropylcellulose) (HPC)
[18] = dose: 100.0 mg/kg/injection, schedule: Q01DX009 (ip), vehicle: saline with Tween-80
[19] = dose: 50.0 mg/kg/injection, schedule: Q01DX009 (ip), vehicle: Klucel (hydroxypropylcellulose) (HPC)
[20] = dose: 200.0 mg/kg/injection, schedule: Q04DX003 (ip), vehicle: saline
[21] = dose: 400.0 mg/kg/injection, schedule: Q04DX003 (ip), vehicle: saline

Measured: T/C

C[N+]12CN3CN(CN(C3)C1)C2
inactive: dose: 50.0 mg/kg/injection, schedule: Q01DX001 (ip), vehicle: carboxymethylcellulose (CMC) 104 % of control | [1] 106 % of control | [2] 100 % of control | [3] 110 % of control | [4] 101 % of control | [5] 91 % of control | [6] 114 % of control | [7] 98 % of control | [8] 96 % of control | [9] 105 % of control

COc1ccc(CN2CCCN(Cc3ccc(OC)cc3OC)C2c2ccc(F)cc2)c(OC)c1
inactive: [10] 94 % of control | [2] 89 % of control | [5] 94 % of control | [8] 100 % of control

CCC(=O)OC(CCN(C)C)(Cc1ccccc1)c1ccccc1 (centres undefined)
inactive: dose: 25.0 mg/kg/injection, schedule: Q01DX009 (ip), vehicle: saline 100 % of control | dose: 50.0 mg/kg/injection, schedule: Q01DX009 (ip), vehicle: saline 95 % of control | [3] 101 % of control | [11] 93 % of control

CC(=O)Oc1cc2c(OC(C)=O)c(-c3c(C)cc4c(C(C)C)c(OC(C)=O)c(OC(C)=O)cc4c3OC(C)=O)c(C)cc2c(C(C)C)c1OC(C)=O
inactive: [12] 86 % of control

Cc1ccc(Cl)c(P(=O)(O)O)c1
inactive: [12] 97 % of control | [13] 106 % of control | [14] 104 % of control

NC(Cc1c[nH]c2ccc(F)cc12)C(=O)O (centres undefined)
inactive: dose: 100.0 mg/kg/injection, schedule: Q01DX001 (ip), vehicle: other 95 % of control | dose: 100.0 mg/kg/injection, schedule: Q04DX003 (ip), vehicle: other 119 % of control | dose: 200.0 mg/kg/injection, schedule: Q01DX001 (ip), vehicle: other 95 % of control | dose: 200.0 mg/kg/injection, schedule: Q04DX003 (ip), vehicle: other 102 % of control | dose: 400.0 mg/kg/injection, schedule: Q01DX001 (ip), vehicle: other 89 % of control

CC(C)(C)NP(=O)(NC(C)(C)C)c1ccc([N+](=O)[O-])cc1
inactive: dose: 100.0 mg/kg/injection, schedule: Q04DX003 (ip), vehicle: acetone 100 % of control | dose: 400.0 mg/kg/injection, schedule: Q04DX003 (ip), vehicle: acetone 93 % of control

C(C#CC1CCCCC1)#CC1CCCCC1
inactive: [3] 94 % of control | [6] 91 % of control | [9] 94 % of control

CCCCOC(=O)c1ccc(OC(=O)Nc2cccc(Cl)c2)cc1
inactive: [15] 94 % of control | [16] 92 % of control | dose: 200.0 mg/kg/injection, schedule: Q01DX009 (ip), vehicle: Klucel (hydroxypropylcellulose) (HPC) 102 % of control | [17] 90 % of control

NC(N)=NC(N)=Nc1ccc2c(Cl)c(Cl)ccc2c1
inactive: dose: 2.5 mg/kg/injection, schedule: Q01DX009 (ip), vehicle: saline sonified 92 % of control | dose: 5.0 mg/kg/injection, schedule: Q01DX009 (ip), vehicle: saline sonified 101 % of control | dose: 10.0 mg/kg/injection, schedule: Q01DX009 (ip), vehicle: saline sonified 101 % of control | dose: 12.5 mg/kg/injection, schedule: Q04DX003 (ip), vehicle: saline with Tween-80 105 % of control | dose: 25.0 mg/kg/injection, schedule: Q04DX003 (ip), vehicle: saline with Tween-80 114 % of control | dose: 50.0 mg/kg/injection, schedule: Q04DX003 (ip), vehicle: saline with Tween-80 100 % of control | dose: 100.0 mg/kg/injection, schedule: Q04DX003 (ip), vehicle: saline sonified 101 % of control

CC1CC/C(=N\N(C)C)c2ccccc21 (centres undefined)
inactive: [18] 120 % of control | [12] 117 % of control | [13] 103 % of control | [14] 105 % of control

O=[N+]([O-])c1ccc([N+](=O)[O-])c(Cl)c1
inactive: [19] 101 % of control | dose: 100.0 mg/kg/injection, schedule: Q01DX009 (ip), vehicle: Klucel (hydroxypropylcellulose) (HPC) 95 % of control | [12] 97 % of control | [13] 86 % of control

NC(N)=Nc1ccc(Sc2ccc(N=C(N)N)cc2)cc1
inactive: dose: 75.0 mg/kg/injection, schedule: Q01DX001 (ip), vehicle: carboxymethylcellulose (CMC) 101 % of control | dose: 150.0 mg/kg/injection, schedule: Q01DX001 (ip), vehicle: carboxymethylcellulose (CMC) 98 % of control | dose: 300.0 mg/kg/injection, schedule: Q01DX001 (ip), vehicle: carboxymethylcellulose (CMC) 98 % of control

CCCCCCCC/C(C=O)=C\c1ccc(C)cc1
inactive: [2] 86 % of control | [5] 102 % of control | [8] 87 % of control

CCc1c(CNc2ccc(C(=O)NC(CC(=O)O)CC(=O)O)cc2)ccc2nc(N)nc(N)c12
inactive: dose: 0.25 mg/kg/injection, schedule: Q01DX009 (ip), vehicle: saline 114 % of control | dose: 1.0 mg/kg/injection, schedule: Q01DX009 (ip), vehicle: saline 103 % of control | dose: 1.0 mg/kg/injection, schedule: Q04DX003 (ip), vehicle: saline 118 % of control

CCC(C)CNC(C)=O (centres undefined)
inactive: [11] 109 % of control | [20] 106 % of control | [21] 109 % of control

O=C(C[n+]1ccccc1)c1cn(Cc2ccccc2)c2ccccc12
inactive: dose: 75.0 mg/kg/injection, schedule: Q01DX001 (ip), vehicle: other 98 % of control | dose: 150.0 mg/kg/injection, schedule: Q01DX001 (ip), vehicle: other 97 % of control

CCCCN(CCCC)CCCOc1cc(C)ccc1C(C)C
inactive: dose: 3.0 mg/kg/injection, schedule: Q04DX003 (ip), vehicle: saline 97 % of control | dose: 6.0 mg/kg/injection, schedule: Q04DX003 (ip), vehicle: saline 105 % of control and 106 % of control | dose: 12.0 mg/kg/injection, schedule: Q01DX009 (ip), vehicle: Klucel (hydroxypropylcellulose) (HPC) 102 % of control | dose: 12.0 mg/kg/injection, schedule: Q04DX003 (ip), vehicle: saline 95 % of control and 107 % of control | dose: 25.0 mg/kg/injection, schedule: Q01DX009 (ip), vehicle: Klucel (hydroxypropylcellulose) (HPC) 93 % of control | dose: 25.0 mg/kg/injection, schedule: Q04DX003 (ip), vehicle: saline 97 % of control and 98 % of control and 105 % of control | [19] 109 % of control | [11] 109 % of control

O=C1c2cc([N+](=O)[O-])ccc2SC2C=CSC12 (centres undefined)
inactive: [1] 94 % of control | [4] 108 % of control | [7] 100 % of control

COB(CCCCB(OC)OC)OC
inactive: dose: 100.0 mg/kg/injection, schedule: Q01DX009 (ip), vehicle: saline sonified 96 % of control | [11] 100 % of control | dose: 200.0 mg/kg/injection, schedule: Q01DX009 (ip), vehicle: saline sonified 92 % of control | [20] 107 % of control | dose: 400.0 mg/kg/injection, schedule: Q01DX009 (ip), vehicle: saline sonified 87 % of control | [21] 94 % of control

CN/N=C/c1cc(=O)[nH]c(=O)[nH]1
inactive: [10] 101 % of control | [2] 104 % of control | [5] 95 % of control

C(=N\N=C\c1ccco1)/c1ccco1
inactive: dose: 100.0 mg/kg/injection, schedule: Q01DX001 (ip), vehicle: saline with Tween-80 98 % of control and 103 % of control | dose: 200.0 mg/kg/injection, schedule: Q01DX001 (ip), vehicle: saline with Tween-80 98 % of control

CCCCCCCCCCCCCCOc1ccc(S(=O)(=O)/N=C(\N)NC(N)=NCCCCCCCCCC)cc1
inactive: dose: 100.0 mg/kg/injection, schedule: Q04DX002 (ip), vehicle: Klucel (hydroxypropylcellulose) (HPC) 89 % of control | dose: 200.0 mg/kg/injection, schedule: Q04DX002 (ip), vehicle: Klucel (hydroxypropylcellulose) (HPC) 101 % of control | dose: 400.0 mg/kg/injection, schedule: Q04DX002 (ip), vehicle: Klucel (hydroxypropylcellulose) (HPC) 89 % of control

O=C1CCCCCCCCCOC(=O)CCCCCCCCCO1
inactive: [15] 94 % of control | [16] 94 % of control | [17] 91 % of control

CCOC(=O)CCN(CC(=O)OCC)C(C)C
inactive: [18] 100 % of control | [12] 100 % of control | dose: 200.0 mg/kg/injection, schedule: Q01DX009 (ip), vehicle: saline with Tween-80 106 % of control | [13] 95 % of control | dose: 400.0 mg/kg/injection, schedule: Q01DX009 (ip), vehicle: saline with Tween-80 110 % of control | [14] 103 % of control
